Measured values: PMC12557383, “Development of a Potent and Functional In Vivo Peptide Competitive Inhibitor for the Toxin MazF” (Journal of Medicinal Chemistry, 2025)
Several values for one entry are separate records, joined by “and”; a condition that tells them apart may be missing. Equal entries are not always repeated.

B1: MazF_(E24A) (E. coli toxin MazF with glutamic acid 24 replaced with alanine, His6 tag removed) (enzyme)
chain: MVSRYVPDMGDLIWVDFDPTKGSAQAGHRPAVVLSPFMYNNKTGMCLCVPCTTQSKGYPFEVVLSGQERDGVALADQVKSIAWRARGATKKGTVAPEELQLIKAKINVLIG
notes: For NMR the same construct was 15N or 15N/13C labelled; also called the toxin; source: E. coli BL21 (DE3) RIL, purified (Ni-NTA, TEV cleavage, second Ni-NTA, SEC); not shown: His6, N-terminal, cleaved

Experiments:
[1] = target: T1, His^6-MazF (Escherichia coli, UniProt P0AE70); test: His6-MazF enzyme activity with fluorescence-suppressed chimeric DNA/RNA substrate; type: biochemical
T1 construct: made in house
T1 sequence (P0AE70 1-111): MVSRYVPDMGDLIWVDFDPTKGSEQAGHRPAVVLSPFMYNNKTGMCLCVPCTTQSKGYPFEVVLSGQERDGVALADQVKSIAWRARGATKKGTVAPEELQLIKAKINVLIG
Protocol: Toxin activity was assessed with a chimeric DNA/RNA substrate labeled with a fluorophore on the 5′ end and a quencher on the 3′ end (Tables S1–S13) as described. The reaction was performed in 50 mM Tris, pH 7, containing 1 mM EDTA in a 96-well plate and in a final volume of 100 μL. The buffer was initially equilibrated at 35 °C, and His^6-MazF was added to a final concentration of 0.75 μM. Inhibitors were incubated with His^6-MazF for 20 min/35 °C before the reaction was started with 0.5 μM of substrate. Fluorescence intensity was recorded every half minute for 90 min on a SpectraMax Paradigm spectrometer (Molecular Devices) at 35 °C with an excitation wavelength of 488 nm and detection at 520 nm. The fluorescence values of all reactions were subtracted from that of the negative control containing only buffer and substrate. The highest fluorescence value obtained for the reaction catalyzed by His^6-MazF was set to 1, and the fluorescence values obtained for all other reactions were normalized relative to this.
The mechanism of inhibition of the toxin by SamF was determined by measuring the initial enzyme-catalyzed ACA site hydrolysis rates (v 0) in the absence and presence of increasing concentrations of the inhibitor. The concentration of His^6-MazF was 0.75 μM. V 0 was considered as the slope of the catalytic curve (fluorescence increase per time) at the initial moments of the reaction up to a maximum of 5 min, after the addition of the substrate. The Lineweaver–Burk graph was generated by plotting the reciprocal of v 0 as a function of the reciprocal of the substrate concentration in the presence of different amounts of inhibitor.
The IC50 value for the inhibition of MazF was calculated by measuring the v 0 as described above in the presence of different concentrations of the inhibitor. The concentration of His^6-MazF was 0.75 μM, and that of the substrate was 0.5 μM.

[2] = target: T2, MazFE24A (Escherichia coli, UniProt P0AE70, E24A); test: Isothermal titration calorimetry (ITC), binding to MazFE24A; conditions: peptide into MazFE24A, pH about 7.10, one set of sites model
T2 construct: His6 (N, cleaved yes); made in house; host or cells: E. coli BL21 (DE3) RIL
T2 sequence (P0AE70 1-111 E24A): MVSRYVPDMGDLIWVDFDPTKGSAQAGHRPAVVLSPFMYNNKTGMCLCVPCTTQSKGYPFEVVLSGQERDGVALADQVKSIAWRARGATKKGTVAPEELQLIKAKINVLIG
Protocol: Experiments were performed in a Malvern VP-ITC microcalorimeter with a reference offset of 15 μcal s^–1, syringe speed of 250 rpm, preinjection delay of 300 s, and a recording interval of 2 s. The thermodynamic parameters of binding were obtained by fitting the experimental thermogram (Origin 7.0 software) to the “one set of sites” model supplied by the equipment after subtracting the heat of dilution. […] Titrations of MazFE24A with SamF were carried out by 20 injections of 15 μL of SamF (225 μM) to a 28 μM MazFE24A solution contained in the calorimetric cell. Samples of MazFE24A and SamF were prepared in the same buffer with a final pH of about 7.10 (30 mM NaHPO4, 4 mM NH4HCO3, 60 mM NaCl, 0.3 mM EDTA, and 2.4 mM DTT).

[3] = Solubility of the purified peptide; type: physicochemical
[4] = target: T2, MazFE24A; test: Competition ligand binding by displacement ITC (MazE vs SamF); conditions: 50 μM MazE titrated into 10 μM MazFE24A with 0, 10 or 30 μM SamF
Excerpt: Raw heats were integrated and fitted by a least-squares algorithm to the “one set of sites” model to calculate thermodynamic parameters after subtracting the heat of dilution.

[5] = CD spectroscopy, α-helix content by K2D2 deconvolution; type: physicochemical; conditions: 0.25 mg/mL in 10 mM NaHPO4, CD deconvolution with K2D2
Protocol: CD spectra were recorded in a Jasco 815 spectropolarimeter with a 0.25 mg/mL concentrated sample of SamF in 10 mM NaHPO4 buffer. CD spectra were recorded with 1 nm data pitch, 1 s of integration time, scanning speed of 50 nm/min, and wavelength range from 200 to 260 nm. The final spectrum is the average of eight accumulations. The peptide spectrum was subtracted from that of the buffer and smoothed by the Savitzky-Golay method.

[6] = target: the molecule itself; test: SEC-MALS; Superdex 75 10/300 GL in NMR buffer; 100 μL of 200 μM MazF_(E24A) alone or with an equimolar concentration of SamF
[7] = target: B1; test: ITC; MazE (50 μM) in the syringe, 20 injections of 8 μL into 10 μM MazF_(E24A) in the cell; 50 mM NaHPO4 pH 7, 100 mM NaCl, 0.5 mM EDTA, 4 mM DTT; one set of sites model; conditions: both partners purified
[8] = target: T3, MazF_(E24A) (E. coli toxin MazF with glutamic acid 24 replaced with alanine, His6 tag removed) (E. coli, UniProt P0AE70 1-111, E24A); test: ITC; in presence of 10 uM SamF
[9] = target: T3, MazF_(E24A) (E. coli toxin MazF with …); test: ITC; in presence of 30 uM SamF
[10] = target: T3, MazF_(E24A) (E. coli toxin MazF with …); test: ITC
[11] = target: T4, His^6-MazF (wild-type E. coli toxin MazF) (E. coli, UniProt P0AE70 1-111); test: cell-based or functional assay
T4 sequence: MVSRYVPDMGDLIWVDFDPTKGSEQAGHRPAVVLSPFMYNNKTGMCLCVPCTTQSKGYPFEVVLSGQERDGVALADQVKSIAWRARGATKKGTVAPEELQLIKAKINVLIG

[12] = target: B1; test: ITC; SamF (225 μM) in the syringe, 20 injections of 15 μL into 28 μM MazF_(E24A) in the cell; 30 mM NaHPO4, 4 mM NH4HCO3, 60 mM NaCl, 0.3 mM EDTA, 2.4 mM DTT, pH about 7.10; one set of sites model; average of two independent experiments; conditions: both partners purified
[13] = target: T3, MazF_(E24A) (E. coli toxin MazF with …); test: ITC; remark: listed apart in the source
[14] = target: B1; conditions: both partners purified
[15] = SamF: average of two independent experiments

Ac-SHLFWAQFKEYF-NH2 [SamF_D9K]
Inhibition of His6-MazF catalysis (result in words) ([1]; 0.75 μM His6-MazF, 0.5 μM substrate, 50 mM Tris pH 7, 35 °C, 20 min preincubation, fluorescence over 90 min): still able to prevent MazF catalysis | protein:peptide complex stoichiometry (N) [2]: 1.0 ±0.1 | TΔS [2, 15]: -2.8 ± 0.9 kcal/mol

Ac-SHLFWAQFDEYF-NH2 [SamF]
Mechanism of inhibition (Lineweaver–Burk) ([1]; 0.75 μM His6-MazF, increasing substrate and inhibitor concentrations, Vmax unaffected, KM enhanced): competitive inhibition | Inhibition of His6-MazF in whole E. coli cell lysate (result in words) ([1]; in the presence of about 0.5 μg of E. coli proteins): still efficiently able to inhibit | TΔS [2, 15]: -3.9 kcal/mol and -3.9 ± 1.9 kcal/mol | ΔH [2, 15]: -11.8 ± 1.6 kcal/mol | Solubility at neutral pHs (result in words) ([3]; neutral pH): low solubility | Solubility at pHs 8–9 (result in words) ([3]; pH 8–9): highly soluble | Competition with MazE for binding to MazF (result in words) [4]: compete for binding to MazF | α-helix content ([5]; pH 7.0, 25 °C): 82.6% | α-helix content ([5]; pH 7.6, 25 °C): 39.11% | α-helix content ([5]; pH 8.0, 25 °C): 23.36%

B1
stoichiometry N [6]: 2

B2: MazE (E. coli antitoxin) (natural protein, UniProt P0AE72 1-82, looked up)
chain: MIHSSVKRWGNSPAVRIPATLMQALNLNIDDEVKIDLVDGKLIIEPVRKEPVFTLAELVNDITPENLHENIDWGEPKDKEVW
notes: also called full-length MazE; the antitoxin
dH [7]: -25.6 ± 1.7 kcal/mol | stoichiometry N [7]: 0.5 | Kd [8]: 0.006 µM | Kd [9]: 0.002 µM | Kd [10]: 0.005 µM

B3: Small Antitoxin of MazF (SamF), synthetic peptide Ac-SHLFWAQFDEYF-NH2 (peptide)
peptide: Ac-SHLFWAQFDEYF-NH2
notes: also called synthetic SamF; the synthetic peptide; source: synthetic peptide (microwave-assisted solid phase, RP-HPLC purified)
IC50 of inhibition of His6-MazF (0.75 μM) cleavage of a fluorescence-suppressed DNA–RNA chimeric substrate (0.5 μM) [11]: 2.17 µM | Kd [12]: 2.5 ± 0.7 µM | dH [12]: -11.8 kcal/mol | stoichiometry N [12]: 1

B4: SamF D9K mutant peptide (peptide)
peptide: Ac-SHLFWAQFKEYF-NH2
notes: the substitution is still to be applied; source: synthetic peptide
Kd [13]: 6.6 µM | fold change of KD against SamF [14]: 2 fold
